Values of other authors in patent US20070232813A1, “Substituted Cyclohexadienals - Syntheses and Applications” (priority 2006, published 2007).

How the values were obtained:
[1] = tested on: Roseobacter sp.; details: at 100 μg, agar diffusion assay
[2] = tested on: Sulfitobacter sp.; details: at 100 μg, agar diffusion assay

## CC(C)=CCCC1=CC=C(C=O)C(C)(CCC=C(C)C)C1 (centres unmarked) [citral dimer B, 6-Methyl-4,6-bis-(4-methyl-pent-3-enyl)-cyclohexa-1,3-dienecarbaldehyde]
[1]
  inhibition (anti-bacterial activity against Roseobacter sp.): 0.5 cm
[2]
  inhibition (anti-bacterial activity against Sulfitobacter sp.): 1.0 cm
